Results from the NIST ThermoML archive (doi:10.1016/j.jct.2003.11.001).
± gives the expanded uncertainty stated by the source.

Assay: mn = molality of the nth substance listed, in mol/kg
Conditions: 101.3 kPa, Liquid; for viscosity: Capillary tube (Ostwald / Ubbelohde) method

Q: What does the source list for CCCCCC(=O)[O-].[Na+] [sodium hexanoate] + O?
A: viscosity (298.15 K, m1 = 0.5): 1.212 ± 0.01 mPa·s; viscosity (298.15 K, m1 = 1): 1.607 ± 0.013 mPa·s; viscosity (298.15 K, m1 = 1.5): 2.102 ± 0.017 mPa·s; viscosity (298.15 K, m1 = 2.177): 3.187 ± 0.026 mPa·s; mass density (298.15 K, m1 = 0.5): 1014.4 ± 0.17 kg/m3; mass density (298.15 K, m1 = 1): 1029.41 ± 0.21 kg/m3; mass density (298.15 K, m1 = 1.5): 1041.88 ± 0.24 kg/m3; mass density (298.15 K, m1 = 2.177): 1054.22 ± 0.27 kg/m3; viscosity (308.15 K, m1 = 0.5): 0.956 ± 0.008 mPa·s; viscosity (308.15 K, m1 = 1): 1.24 ± 0.011 mPa·s; viscosity (308.15 K, m1 = 1.5): 1.601 ± 0.013 mPa·s; viscosity (308.15 K, m1 = 2.177): 2.402 ± 0.02 mPa·s; mass density (308.15 K, m1 = 0.5): 1010.74 ± 0.17 kg/m3; mass density (308.15 K, m1 = 1): 1024.96 ± 0.2 kg/m3; mass density (308.15 K, m1 = 1.5): 1036.7 ± 0.23 kg/m3; mass density (308.15 K, m1 = 2.177): 1048.72 ± 0.26 kg/m3
